According to article PMC7983974 (Basic & Clinical Pharmacology & Toxicology, 2020):

Target: T1, UGT-mediated glucuronidation of molidustat (M1 formation) (Homo sapiens, UniProt P22309)
T1 sequence (P22309 26-533): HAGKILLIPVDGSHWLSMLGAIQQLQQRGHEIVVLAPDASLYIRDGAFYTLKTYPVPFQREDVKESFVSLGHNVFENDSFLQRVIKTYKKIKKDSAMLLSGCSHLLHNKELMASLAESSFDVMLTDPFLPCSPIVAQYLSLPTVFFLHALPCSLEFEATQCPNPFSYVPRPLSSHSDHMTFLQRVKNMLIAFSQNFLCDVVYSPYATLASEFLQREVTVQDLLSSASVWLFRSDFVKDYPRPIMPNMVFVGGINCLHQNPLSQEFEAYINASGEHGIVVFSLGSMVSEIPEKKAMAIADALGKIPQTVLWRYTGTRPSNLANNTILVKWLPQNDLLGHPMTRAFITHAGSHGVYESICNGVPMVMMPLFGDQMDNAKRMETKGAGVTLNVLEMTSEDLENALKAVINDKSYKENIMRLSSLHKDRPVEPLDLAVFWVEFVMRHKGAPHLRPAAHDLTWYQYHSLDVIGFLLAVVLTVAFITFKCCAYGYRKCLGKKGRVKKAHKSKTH
Experiment: Inhibition of M1 formation from molidustat in pooled human liver microsomes
Format: in vitro ADME
Conditions: human, pooled human liver microsomes, probe molidustat 5 µmol/L (formation of M1), IC50, pooled HLMs 0.3 mg/mL, N=1, Table 1

Row | Compound | IC50 at 30 min [µM]
1 | Oc1cc(O)c2c(c1)O[C@H](c1cc(O)c(O)c(O)c1)[C@H](O)C2 [(‐)‐Epigallocatechin] | 5.1
2 | C[C@]12CC[C@@H](O)C[C@@H]1CC[C@@H]1[C@@H]2CC[C@]2(C)C(=O)CC[C@@H]12 [Androsterone] | 44
3 | COc1ccc(CCN2CCC(Nc3nc4ccccc4n3Cc3ccc(F)cc3)CC2)cc1 [Astemizole] | 23.5
4 | CC(C)=CCC/C(C)=C/COc1c2ccoc2cc2oc(=O)ccc12 [Bergamottin] | 14.8
5 | C=CC1=C(C)/C(=C/c2[nH]c(Cc3[nH]c(/C=C4\NC(=O)C(C)=C4C=C)c(C)c3CCC(=O)O)c(CCC(=O)O)c2C)NC1=O [Bilirubin] | 1.5
6 | COc1ccccc1OCCNCC(O)COc1cccc2[nH]c3ccccc3c12 (stereo not drawn) [Carvedilol] | 2.9
7 | Cc1ccc(-c2cc(C(F)(F)F)nn2-c2ccc(S(N)(=O)=O)cc2)cc1 [Celecoxib] | 10.6
8 | COc1cc(N)c(Cl)cc1C(=O)NC1CCN(CCCOc2ccc(F)cc2)CC1OC (stereo not drawn) [Cisapride] | 4.1
9 | Clc1ccccc1C(c1ccccc1)(c1ccccc1)n1ccnc1 [Clotrimazole] | 10.2
10 | COc1cc(/C=C/C(=O)CC(=O)/C=C/c2ccc(O)c(OC)c2)ccc1O [Curcumin] | 2.2
11 | O=c1c(-c2ccc(O)cc2)coc2cc(O)ccc12 [Daidzein] | 6.8
12 | Cc1nc(Nc2ncc(C(=O)Nc3c(C)cccc3Cl)s2)cc(N2CCN(CCO)CC2)n1 [Dasatinib] | 1.4
13 | O=C(O)Cc1ccccc1Nc1c(Cl)cccc1Cl [Diclofenac] | 38.2
14 | O=C(O)c1cc(-c2ccc(F)cc2F)ccc1O [Diflunisal] | 75.6
15 | COc1cccc2c1C(=O)c1c(O)c3c(c(O)c1C2=O)C[C@@](O)(C(=O)CO)C[C@@H]3O[C@H]1C[C@H](N)[C@H](O)[C@H](C)O1 [Doxorubicin] | 40.4
16 | O=C1Nc2ccc(Cl)cc2[C@@](C#CC2CC2)(C(F)(F)F)O1 [Efavirenz] | 8
17 | CO[C@H]1C[C@@H]2CC[C@@H](C)[C@@](O)(O2)C(=O)C(=O)N2CCCC[C@H]2C(=O)O[C@H]([C@H](C)C[C@@H]2CC[C@@H](OCCO)[C@H](OC)C2)CC(=O)[C@H](C)/C=C(\C)[C@@H](O)[C@@H](OC)C(=O)[C@H](C)C[C@H](C)/C=C/C=C/C=C/1C [Everolimus] | 4.5
18 | Cc1nc(-c2ccc(OCC(C)C)c(C#N)c2)sc1C(=O)O [Febuxostat] | 7.2
19 | COc1cc2ncnc(Nc3ccc(F)c(Cl)c3)c2cc1OCCCN1CCOCC1 [Gefitinib] | 1.8
20 | O=c1c(-c2ccc(O)cc2)coc2cc(O)cc(O)c12 [Genistein] | 2.3
21 | COc1ccc(Cl)cc1C(=O)NCCc1ccc(S(=O)(=O)NC(=O)NC2CCCCC2)cc1 [Glibenclamide] | 6.3
22 | CC(C)(C)NC(=O)[C@@H]1CN(Cc2cccnc2)CCN1C[C@@H](O)C[C@@H](Cc1ccccc1)C(=O)N[C@H]1c2ccccc2C[C@H]1O [Indinavir] | 3
23 | CCC(C)n1ncn(-c2ccc(N3CCN(c4ccc(OCC5COC(Cn6cncn6)(c6ccc(Cl)cc6Cl)O5)cc4)CC3)cc2)c1=O (stereo not drawn) [Itraconazole] | 1.2
24 | CC(=O)N1CCN(c2ccc(OCC3COC(Cn4ccnc4)(c4ccc(Cl)cc4Cl)O3)cc2)CC1 (stereo not drawn) [Ketoconazole] | 6.1
25 | Cc1c(OCC(F)(F)F)ccnc1C[S+]([O-])c1nc2ccccc2[nH]1 (stereo not drawn) [Lansoprazole] | 36.8
26 | CS(=O)(=O)CCNCc1ccc(-c2ccc3ncnc(Nc4ccc(OCc5cccc(F)c5)c(Cl)c4)c3c2)o1 [Lapatinib] | 2.5

Row | Compound | IC50 at 30 min [µM]
27 | Cc1cccc(C)c1OCC(=O)N[C@@H](Cc1ccccc1)[C@@H](O)C[C@H](Cc1ccccc1)NC(=O)[C@H](C(C)C)N1CCCNC1=O [Lopinavir] | 1.3
28 | CC[C@H](C)C(=O)O[C@H]1C[C@@H](C)C=C2C=C[C@H](C)[C@H](CC[C@@H]3C[C@@H](O)CC(=O)O3)[C@H]21 [Lovastatin] | 10.5
29 | CC[C@H](C)C(=O)O[C@H]1CCC=C2C=C[C@H](C)[C@H](CC[C@@H]3C[C@@H](O)CC(=O)O3)[C@H]21 [Mevastatin] | 13.2
30 | COCC(=O)O[C@]1(CCN(C)CCCc2nc3ccccc3[nH]2)CCc2cc(F)ccc2[C@@H]1C(C)C [Mibefradil] | 20.2
31 | Clc1ccc(COC(Cn2ccnc2)c2ccc(Cl)cc2Cl)c(Cl)c1 (stereo not drawn) [Miconazole] | 19.3
32 | Cc1ncc2n1-c1ccc(Cl)cc1C(c1ccccc1F)=NC2 [Midazolam] | 11.1
33 | CC#C[C@]1(O)CC[C@H]2[C@@H]3CCC4=CC(=O)CCC4=C3[C@@H](c3ccc(N(C)C)cc3)C[C@@]21C [Mifepristone] | 1.4
34 | CC(C)(O)c1ccccc1CC[C@@H](SCC1(CC(=O)O)CC1)c1cccc(/C=C/c2ccc3ccc(Cl)cc3n2)c1 [Montelukast] | 0.49
35 | O=C1C[C@@H](c2ccc(O)cc2)Oc2cc(O)cc(O)c21 [Naringenin] | 11.6
36 | CCc1nn(CCCN2CCN(c3cccc(Cl)c3)CC2)c(=O)n1CCOc1ccccc1 [Nefazodone] | 11.4
37 | Cc1c(O)cccc1C(=O)N[C@@H](CSc1ccccc1)[C@H](O)CN1C[C@H]2CCCC[C@H]2C[C@H]1C(=O)NC(C)(C)C [Nelfinavir] | 1.5
38 | O=C(O)c1cccnc1Nc1cccc(C(F)(F)F)c1 [Niflumic acid] | 14.6
39 | COc1ccc2[nH]c([S+]([O-])Cc3ncc(C)c(OC)c3C)nc2c1 (stereo not drawn) [Omeprazole] | 17.1
40 | CC(=O)O[C@H]1C(=O)[C@@]2(C)[C@H]([C@H](OC(=O)c3ccccc3)[C@]3(O)C[C@H](OC(=O)[C@H](O)[C@@H](NC(=O)c4ccccc4)c4ccccc4)C(C)=C1C3(C)C)[C@]1(OC(C)=O)CO[C@@H]1C[C@@H]2O [Paclitaxel] | 10.8
41 | COc1ccnc(C[S+]([O-])c2nc3ccc(OC(F)F)cc3[nH]2)c1OC (stereo not drawn) [Pantoprazole] | 19.7
42 | O=C(O)C[C@H](O)C[C@H](O)/C=C/c1c(C2CC2)nc2ccccc2c1-c1ccc(F)cc1 [Pitavastatin] | 14.8
43 | O=c1c(O)c(-c2ccc(O)c(O)c2)oc2cc(O)cc(O)c12 [Quercetin] | 5.5
44 | CN(CCOc1ccc(CC2SC(=O)NC2=O)cc1)c1ccccn1 (stereo not drawn) [Rosiglitazone] | 10.7
45 | CCCc1nn(C)c2c(=O)[nH]c(-c3cc(S(=O)(=O)N4CCN(C)CC4)ccc3OCC)nc12 [Sildenafil] | 46.2
46 | CNC(=O)c1cc(Oc2ccc(NC(=O)Nc3ccc(Cl)c(C(F)(F)F)c3)cc2)ccn1 [Sorafenib] | 0.32
47 | O=C1C(CC[S+]([O-])c2ccccc2)C(=O)N(c2ccccc2)N1c1ccccc1 (stereo not drawn) [Sulfinpyrazone] | 31.4
48 | CC1=C(CC(=O)O)c2cc(F)ccc2/C1=C\c1ccc([S+](C)[O-])cc1 (stereo not drawn) [Sulindac] | 37.5
49 | CCN(CC)CCNC(=O)c1c(C)[nH]c(/C=C2\C(=O)Nc3ccc(F)cc32)c1C [Sunitinib] | 18.7
50 | C=CC[C@@H]1/C=C(\C)C[C@H](C)C[C@H](OC)[C@H]2O[C@@](O)(C(=O)C(=O)N3CCCC[C@H]3C(=O)O[C@H](/C(C)=C/[C@@H]3CC[C@@H](O)[C@H](OC)C3)[C@H](C)[C@@H](O)CC1=O)[C@H](C)C[C@@H]2OC [Tacrolimus] | 0.7
51 | CCCc1nc2c(C)cc(-c3nc4ccccc4n3C)cc2n1Cc1ccc(-c2ccccc2C(=O)O)cc1 [Telmisartan] | 2.8
